Entries after “also recorded” stand apart in the source; their conditions may differ.
Experiments:
Format in all cases: in vivo, rat (male)
[1] = Efficiency of Traversing Eye to Retina (EtE) of FITC labeled peptides given in eye drops
Procedure: In order to trace the drugs, peptides were labeled with fluorescein isothiocyanate (FITC) using a FITC Protein Labeling Kit from ChangRu Biotech Ltd. (Guangzhou, China) according to the manufacturer’s protocol. After the labeling reaction, gel filtration was used to remove the free FITC. In order to determine the amount of the residual free FITC, the peptides were submitted to ultrafiltration using Amicon Ultra – 0.5 mL (Millipore, USA) with a molecular sieve of 2000 Da. After centrifugation (1000×g, 10 min) the peptide was subjected to fluorescence measurements performed with the multi-wavelength scanner Victor 3 (GE, USA) at the excitation of 495 nm and the emission of 520 nm. Protein concentrations were determined using the K4000 Bradford Protein Quantification Kit (Innovative, Guangzhou, China). The labeling efficiency was calculated using the following formula: label efficiency (LE) = fluorescence value (FV)/peptide mass (mol) (PM), representing the fluorescence intensity (AU) per mol of peptide (mol).
Male rats with body weight from 160 to 180 g were purchased from the Medical and Experimental Animal Center (Guangdong, China). Rats were randomly assigned to one of the experimental groups (7 rats per group) and subjected to eye drops with FITC labeled peptides (100 nmol/kg) and PBS as control. Rats were sacrificed by anesthesia 2 h after the eye drop administration and the retina was separated, weighed, washed three times with PBS and divided into two parts. One part was prepared on the glass slide with glycerin and subjected to fluorescence microscopic observation of FITC with 495 nm excitation/520 nm emission. All images, focused on the left upper regions of the retina, were taken with 500 ms exposure time. The other part of the retina was subjected to grinding and ultrasonication in PBS at a concentration of 100 mg weight tissue per milliliter of PBS. The supernatant was collected by centrifugation and the fluorescence intensity in the supernatant (100 uL) was determined. The valid fluorescence intensity (FI) for each sample treated with FITC labeled peptide was corrected by subtracting the fluorescence value of the sample treated with PBS, which was used as a blank background. The Efficiency of Traversing Eye to Retina (EtE) was expressed as the percentages of the FITC labeled peptide mass in the retina to the total FITC labeled peptide mass. The EtE was calculated using the following formula: EtE = tFI/LE/PW × 100% (tFI presents the fluorescence intensity of retina (arbitration unit, AU); LE presents the label efficiency of each peptide which has been determined above; PW presents the peptide mass (mole)).
Fig. 1 The efficiency of FITC labeled PACAP/PACAP-TAT (a, b) and VIP/VIP-TAT (c, d) traversing to retina given in eye drops. The retina was separated 2 h after the eye drops and submitted to the fluorescence microscopic observation of FITC fluorescence signal (A, C) and the calculation of Efficiency of Traversing Eye to Retina (EtE) (b, d). The data are means ± SEM of four experiments

[2] = tested on: retina (BCCAO-induced retinopathy); test: Retinal layer thickness / morphology after bilateral carotid artery occlusion (BCCAO), eye drops
Procedure: (§1) Adult male rat litters were housed in the animal facility in individual cages in a 12 h light-dark cycle with food and water ad libitum. Animal housing, care and application of experimental procedures were in accordance with institutional guidelines under approved protocols (No: BA02/2000–26/2017, University of Pecs). Under isoflurane anesthesia, common carotid arteries were exposed on both sides through a midline incision and then ligated with a 3–0 filament. A group of animals (sham group) underwent all steps of the operating procedure except ligation of the carotid arteries. Immediately following the operation, the right eye of the animals was treated with derivatives of PACAP (PACAP-TAT /n = 17/ or VIP-TAT /n = 17/) eye drops (1 μg/drop). Dose and schedule of the eye drop treatments were based on our previous experiments (Werling et al. [2016]). In the experiment for histological analysis, the different derivatives were dissolved in benzalkonium solution for ophthalmic use (solutio ophthalmica cum benzalkonio (SOCB)). The left eye, serving as a control, was treated with vehicle containing neither PACAP-TAT nor VIP-TAT. Animals were treated for five consecutive days, twice a day with one drop of drug, under brief isoflurane anesthesia (max. 5 min).
(§2) Fourteen days after the operation, rats (n = 10 SHAM and n = 24 BCCAO) were killed with anesthetic and the eyes were processed for histology. The eyes were removed and the retinas were solved in phosphate buffered saline (PBS), fixed in 4% paraformaldehyde dissolved in 0.1 M phosphate buffer (PB) (Sigma, Budapest, Hungary) and embedded in Durcupan ACM resin (Sigma, Budapest, Hungary). Retinas were cut at 2 μm and stained with toluidine blue dye (Sigma, Hungary). Sections were mounted in DPX medium (Sigma, Hungary) and photographs were taken with a digital CCD camera using the Spot program. Central retinal areas within 1 mm from the optic nerve were used (n = 5 measurements from one tissue block). The following parameters were measured: (i) cross-section of the retina from the outer limiting membrane (OLM) to the inner limiting membrane (ILM), (ii) the width of individual retinal layers (outer nuclear layer [ONL], outer plexiform layer [OPL], inner nuclear layer [INL], inner plexiform layer [IPL]), (iii) the number of cells/100 μm section length in the GCL, and the (iv) number of cells/[…]. Results are presented as mean ± SEM. Statistical comparisons were made using the two-way ANOVA test followed by Tukey’s post hoc analysis.
Fig. 4 Quantification of retinal layers in SHAM+SOCB, in SHAM+PACAP-TAT, in BCCAO+SOCB, and in BCCAO+PACAP-TAT animals; the right eye was treated with PACAP-TAT eye drops, the left eye served as controls receiving only SOCB. Comparison of all retinal layers (a–e). […] Statistical significance (*p < 0.05 vs. SHAM+SOCB retinas, #p < 0.05 vs. BCCAO+SOCB retinas) was calculated by two-way ANOVA followed by Fischer’s post hoc test
Fig. 6 Quantification of retinal layers in SHAM+SOCB, in SHAM+VIP-TAT, in BCCAO+SOCB, and in BCCAO+VIP-TAT animals; the right eye was treated with VIP-TAT eye drops, the left eye served as control receiving only SOCB. Comparison of all retinal layers (a–e). […] Statistical significance (*p < 0.05 vs. SHAM+SOCB retinas, #p < 0.05 vs. BCCAO+SOCB retinas) was calculated by two-way ANOVA followed by Fischer’s post hoc test

[3] = tested on: retina (BCCAO-induced retinopathy); test: Number of cells in retinal nuclear layers and GCL after BCCAO, eye drops; conditions: eye drops 1 μg/drop, twice a day, five days, vs BCCAO-induced degenerated retinas, 14 days
Procedure: as §1, §2
Fig. 5 Quantification of the number of cells/100 μm GCL length (a), the number of cells/500 μm^2 ONL (b) and INL (c) areas in SHAM+SOCB, in SHAM+PACAP-TAT, in BCCAO+SOCB, and in BCCAO+PACAP-TAT animals. Statistical significance (*p < 0.05 vs. SHAM+SOCB retinas, #p < 0.05 vs. BCCAO+SOCB retinas) was calculated by two-way ANOVA followed by Bonferroni’s post hoc test
Fig. 7 Quantification of the number of cells/100 μm GCL length (a), the number of cells/500 μm^2 ONL (b) and INL (c) areas in SHAM+SOCB, in SHAM+VIP-TAT, in BCCAO+SOCB, and in BCCAO+VIP-TAT animals. Statistical significance (*p < 0.05 vs. SHAM+SOCB retinas, #p < 0.05 vs. BCCAO+SOCB retinas) was calculated by two-way ANOVA followed by Bonferroni’s post hoc test

## CC[C@H](C)[C@H](NC(=O)CNC(=O)[C@H](CC(=O)O)NC(=O)[C@H](CO)NC(=O)[C@@H](N)Cc1c[nH]cn1)C(=O)N[C@@H](Cc1ccccc1)C(=O)N[C@H](C(=O)N[C@@H](CC(=O)O)C(=O)N[C@@H](CO)C(=O)N[C@@H](Cc1ccc(O)cc1)C(=O)N[C@@H](CO)C(=O)N[C@@H](CCCNC(=N)N)C(=O)N[C@@H](Cc1ccc(O)cc1)C(=O)N[C@@H](CCCNC(=N)N)C(=O)N[C@@H](CCCCN)C(=O)N[C@@H](CCC(N)=O)C(=O)N[C@@H](CCSC)C(=O)N[C@@H](C)C(=O)N[C@H](C(=O)N[C@@H](CCCCN)C(=O)N[C@@H](CCCCN)C(=O)N[C@@H](Cc1ccc(O)cc1)C(=O)N[C@@H](CC(C)C)C(=O)N[C@@H](C)C(=O)N[C@@H](C)C(=O)N[C@H](C(=O)N[C@@H](CC(C)C)C(=O)NCC(=O)N[C@@H](CCCCN)C(=O)N[C@@H](CCCNC(=N)N)C(=O)N[C@@H](Cc1ccc(O)cc1)C(=O)N[C@@H](CCCCN)C(=O)N[C@@H](CCC(N)=O)C(=O)N[C@@H](CCCNC(=N)N)C(=O)N[C@H](C(=O)N[C@@H](CCCCN)C(=O)N[C@@H](CC(N)=O)C(=O)N[C@@H](CCCCN)C(=O)NCC(=O)N[C@@H](CCCNC(=N)N)C(=O)N[C@@H](CCCCN)C(=O)N[C@@H](CCCCN)C(=O)N[C@@H](CCCNC(=N)N)C(=O)N[C@@H](CCCNC(=N)N)C(=O)N[C@@H](CCC(N)=O)C(=O)N[C@@H](CCCNC(=N)N)C(=O)N[C@@H](CCCNC(=N)N)C(=O)N[C@@H](CCCNC(=N)N)C(=O)N1CCC[C@H]1C(=O)N[C@@H](CCC(N)=O)C(=O)O)C(C)C)C(C)C)C(C)C)[C@@H](C)O [PACAP-TAT]
[1]; FITC labeled peptides, eye drops 100 nmol/kg, retina separated 2 h after, fluorescence 495 nm excitation/520 nm emission, % of FITC labeled peptide mass in retina to total, means ± SEM of four experiments (7 rats per group)
  Efficiency of Traversing Eye to Retina (EtE): 3.66 ± 0.67%
[1]; PACAP-TAT/VIP-TAT vs PACAP/VIP, respectively, eye drops 100 nmol/kg, 2 h
  EtE relative to the untagged peptide: about three-fold that of PACAP/VIP
[1]; fluorescence microscopy of retina 2 h after eye drops of FITC labeled peptides (100 nmol/kg), vs PACAP/VIP
  FITC fluorescence density per area unit in the retina: much higher than in retinas treated with eye drops of PACAP/VIP
[2]; BCCAO + eye drops, OPL almost disappeared in several BCCAO-induced degenerated retinas
  OPL preservation after BCCAO: preserved
[2]; BCCAO + eye drops, toluidine blue sections, 14 days, severe degeneration in BCCAO+SOCB
  Retinal degeneration in light microphotographs after BCCAO: only mild degeneration
[2]; BCCAO, topical eye drops in SOCB
  Retinoprotective efficacy of eye drops, overall / compared with untagged peptide: attenuate ischemic retinal degeneration via the PAC1 receptor; also recorded: did not prove to have significantly higher retinoprotective efficacy than untagged PACAP
[2]; BCCAO, eye drops 1 μg/drop, twice a day, five consecutive days, in SOCB, right eye, left eye SOCB control, 14 days, p < 0.05 vs. BCCAO+SOCB
  Retinal layer thickness (OLM-ILM, ONL, OPL, INL, IPL) after BCCAO: significant amelioration in all retinal layers; also recorded: improved the structure of all the retinal layers
[2]; eye drops alone in sham animals, 1 μg/drop, twice a day, five consecutive days, in SOCB, histology 14 days after operation
  Change of retinal thickness in sham animals: did not cause any changes in the retinal thickness
[3]
  Number of cells in the GCL/100 μm after BCCAO: significantly higher compared to the BCCAO-induced degenerated retinas
  Number of cells in the INL/500 μm2 after BCCAO: significantly higher compared to the BCCAO-induced degenerated retinas
  Number of cells in the ONL/500 μm2 after BCCAO: significantly higher compared to the BCCAO-induced degenerated retinas

From PMC6581923 (Journal of Molecular Neuroscience, 2018)
